According to patent publication US20190119282A1, “IMIDAZOPYRIDAZINES USEFUL AS INHIBITORS OF THE PAR-2 SIGNALING PATHWAY” (Vertex Pharmaceuticals Incorporated, priority 2013, published 2019):

Key:
[1] = target: T1, PAR2 (HT-29 cells, trypsin activation) (Homo sapiens, UniProt P55085); assay: Ca FLIPR TETRA assay, ANTAGONIST mode, stimulation with 3.1 U/mL trypsin; format: cell-based; details: HT-29 cells
T1 construct: host or cells: HT-29 cells
T1 sequence (P55085 26-397): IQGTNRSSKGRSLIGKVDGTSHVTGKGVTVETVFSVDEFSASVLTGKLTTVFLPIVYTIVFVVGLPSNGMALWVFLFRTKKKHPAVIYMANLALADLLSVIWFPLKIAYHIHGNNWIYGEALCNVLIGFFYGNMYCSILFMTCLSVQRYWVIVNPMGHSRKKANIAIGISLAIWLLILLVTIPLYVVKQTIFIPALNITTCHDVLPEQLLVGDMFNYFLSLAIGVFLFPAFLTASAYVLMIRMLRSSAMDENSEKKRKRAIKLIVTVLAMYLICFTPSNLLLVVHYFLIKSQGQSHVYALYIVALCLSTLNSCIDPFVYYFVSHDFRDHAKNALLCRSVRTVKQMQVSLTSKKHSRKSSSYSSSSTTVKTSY
Procedure, shortened: (§1)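 HT-29 cells in 1% FBS/McCoy's overnight, loaded with Calcium 5 dye; compounds added and read first for intrinsic Ca2+ activation, then incubated 30 min at r.t. Antagonism read on FLIPR Tetra after stimulation with final 8 μM SLIGKV, 3.1 U/mL trypsin, 1 U/mL thrombin or 0.6 μM UTP.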

[2] = target: T2, PAR2 (HT-29 cells, SLIGKV activation) (Homo sapiens, UniProt P55085); assay: Ca FLIPR TETRA assay, ANTAGONIST mode, stimulation with 8 μM SLIGKV; format: cell-based; details: HT-29 cells
T2 construct: host or cells: HT-29 cells
T2 sequence (P55085 26-397): T1 sequence (P55085 26-397)
Procedure, shortened: as §1

[3] = system: Thrombin-stimulated Ca2+ response in HT-29 cells; assay: Ca FLIPR TETRA assay, ANTAGONIST mode, stimulation with 1 U/mL Thrombin; format: cell-based, human; details: Homo sapiens, HT-29 cells
Procedure, shortened: as §1

[4] = system: UTP-stimulated Ca2+ response in HT-29 cells; assay: Ca FLIPR TETRA assay, ANTAGONIST mode, stimulation with 0.6 μM UTP; format: cell-based, human; details: Homo sapiens, HT-29 cells
Procedure, shortened: as §1

[5] = antagonist mode, stimulation with 3.1 U/mL trypsin
[6] = antagonist mode, stimulation with 8 μM SLIGKV
[7] = antagonist mode, stimulation with 1 U/mL Thrombin
[8] = antagonist mode, stimulation with 0.6 μM UTP
[9] = stimulation with 3.1 U/mL trypsin
[10] = stimulation with 1 U/mL Thrombin

| SMILES | IC50 [1, 5] [µM] | IC50 [2, 6] [µM] | IC50 [3, 7] [µM] | IC50 [4, 8] [µM] | other results |
| --- | --- | --- | --- | --- | --- |
| COC(=O)C1(C(=O)N2CCN(C(=O)c3cn4nc(-c5ccc(F)cc5)cc(C(C)(C)C)c4n3)C(C)(C)C2)CC1 [Compound I-527] | 0.003 | 0.0043 | > 1 | > 1 |  |
| CC(C)c1cc(-c2cccc(F)c2)nn2cc(C(=O)N3CCN(C(=O)C(C)(C)O)CC3(C)C)nc12 [Compound I-250] | 0.128 | 0.057 | > 1 | > 1 |  |
| CCc1cc(-c2ccc(F)cc2)nn2cc(C(=O)N3CCN(C(=O)[C@H](O)CC(C)C)CC3(C)C)nc12 [Compound I-167] |  |  |  |  | IC50 [1, 9]: 0.002 µM; IC50 ([2]; stimulation with 8 μM SLIGKV): 0.002 µM; IC50 [3, 10]: 8.5 µM; IC50 ([4]; stimulation with 0.6 μM UTP): 9.6 µM |
| CC1(c2cc(-c3ccc(F)cc3)nn3cc(C(=O)N4CCN(C(=O)C5(O)CCOCC5)CC4(C)C)nc23)CC1 [Compound I-31, [6-(4-fluorophenyl)-8-(1-methylcyclopropyl)imidazo[1,2-b]pyridazin-2-yl]-[4-(4-hydroxytetrahydropyran-4-carbonyl)-2,2-dimethyl-piperazin-1-yl]methanone] |  |  |  |  | IC50 [1, 9]: 0.042 µM; IC50 ([2]; stimulation with 8 μM SLIGKV): 0.031 µM; IC50 [3, 10]: 19 µM; IC50 ([4]; stimulation with 0.6 μM UTP): 24 µM |
| Cc1ccc(-c2cc(C(C)(C)C)c3nc(C(=O)N4CCN(C(=O)c5ccccn5)CC4(C)C)cn3n2)cc1 [Compound I-391] | 0.0022 | 0.0018 | > 1 | > 1 |  |
| Cc1nnc(C(=O)N2CCN(C(=O)c3cn4nc(-c5ccc(C)c(F)c5)cc(C(C)(C)C)c4n3)C(C)(C)C2)o1 [Compound I-432] | 0.0021 | 0.0019 | > 1 | > 1 |  |
| CC(C)(C)c1cc(C2CCC(F)(F)CC2)nn2cc(C(=O)N3CCN(C(=O)[C@H]4CC[C@H](C(=O)O)CC4)CC3(C)C)nc12 [Compound I-506] | 0.163 | 0.107 | > 1 | > 1 |  |
| CC(C)c1cc(-c2ccc(F)c(Cl)c2)nn2cc(C(=O)N3CCN(C(=O)[C@H]4CC[C@H](C(=O)O)CC4)CC3(C)C)nc12 [Compound I-496] | 0.101 | 0.0553 | > 1 | > 1 |  |
| Cc1cc(-c2cc(C(C)C)c3nc(C(=O)N4CCN(C(=O)c5nc[nH]n5)CC4(C)C)cn3n2)ccc1F [Compound I-342] | 0.0082 | 0.0126 | > 1 | > 1 |  |
| C=CC(=O)N1CCN(C(=O)c2cn3nc(-c4ccc(F)cc4)cc(C(C)C)c3n2)C(C)(C)C1 [Compound I-160] |  |  |  |  | IC50 [1, 9]: 0.041 µM; IC50 ([2]; stimulation with 8 μM SLIGKV): 0.01 µM; IC50 [3, 10]: 7.9 µM; IC50 ([4]; stimulation with 0.6 μM UTP): 14 µM |
| CC(C)(C)c1cc(-c2ccc(Cl)c(F)c2)nn2cc(C(=O)N3CCN(C(=O)c4ncccn4)CC3(C)C)nc12 [Compound I-456] | 0.0007 | 0.0005 | > 1 | > 1 |  |
| Cc1cc(C2=Nn3cc(C(=O)N4CCNC(=O)C4(C)C)nc3C(C(C)C)C2)ccc1F (centres unmarked) [Compound I-447] | 0.18 | 0.17 | > 1 | > 1 |  |
| CCc1cc(-c2ccc(F)cc2)nn2cc(C(=O)N3CCN(C(=O)[C@H](O)C(C)C)[C@@H](C)C3)nc12 [Compound I-168] |  |  |  |  | IC50 [1, 9]: 0.35 µM; IC50 ([2]; stimulation with 8 μM SLIGKV): 0.067 µM; IC50 [3, 10]: 16 µM; IC50 ([4]; stimulation with 0.6 μM UTP): 13 µM |
| Cc1cc(-c2cc(C(C)(C)C)c3nc(C(=O)N4CCN(C(=O)c5ccn[nH]5)CC4(C)C)cn3n2)ccc1F [Compound I-381] | 0.0012 | 0.0013 | > 1 | > 1 |  |
| CC1(C)CN(C(=O)C2CC(O)(C(F)(F)F)C2)CCN1C(=O)c1cn2nc(-c3ccc(F)cc3)cc(C(F)(F)F)c2n1 (centres unmarked) [Compound I-272] | 0.0025 | 0.0015 | > 1 | > 1 |  |
| CC(C)c1cc(-c2ccc(F)cc2)nn2cc(C(=O)N3CCN(C(=O)c4cncnc4)CC3(C)C)nc12 [Compound I-322] | 0.069 | 0.0415 | > 1 | > 1 |  |
| Cc1cc(C(=O)N2CCN(C(=O)c3cn4nc(-c5ccc(F)c(C)c5)cc(C(C)C)c4n3)C(C)(C)C2)[nH]n1 [Compound I-341] | 0.0017 | 0.0021 | > 1 | > 1 |  |
| Cc1cccc(-c2cc(C(C)C)c3nc(C(=O)N4CCN(C(=O)C(C)(C)O)CC4(C)C)cn3n2)c1 [Compound I-216] | 0.19 | 0.107 | > 1 | > 1 |  |

| SMILES | IC50 [1, 5] [µM] | IC50 [2, 6] [µM] | IC50 [3, 7] [µM] | IC50 [4, 8] [µM] | other results |
| --- | --- | --- | --- | --- | --- |
| CC(C)(C)c1cc(-c2ccc(Cl)cc2)nn2cc(C(=O)N3CCN(C(=O)[C@H]4CC[C@H](C(=O)O)CC4)CC3(C)C)nc12 [Compound I-491] | 0.0032 | 0.0024 | > 1 | > 1 |  |
| CC(C)c1cc(-c2ccc(OC(F)(F)F)cc2)nn2cc(C(=O)N3CCN(C(=O)C(C)(C)O)CC3(C)C)nc12 [Compound I-219] | 0.36 | 0.143 | > 1 | > 1 |  |
| CC(C)(C)OC(=O)N1CCCN(C(=O)c2cn3nc(-c4ccc(F)cc4)cc(C(F)(F)F)c3n2)CC1 [Compound I-84] |  |  |  |  | IC50 [1, 9]: 1.8 µM; IC50 ([2]; stimulation with 8 μM SLIGKV): 0.79 µM; IC50 [3, 10]: 6.4 µM; IC50 ([4]; stimulation with 0.6 μM UTP): 5.1 µM |
| CCc1cc(-c2ccc(F)cc2)nn2cc(C(=O)N3CCN(C(=O)[C@H](O)C(C)(C)C)[C@@H](C)C3)nc12 [Compound I-172] |  |  |  |  | IC50 [1, 9]: 0.33 µM; IC50 ([2]; stimulation with 8 μM SLIGKV): 0.022 µM; IC50 [3, 10]: 15 µM; IC50 ([4]; stimulation with 0.6 μM UTP): 15 µM |
| CC(C)(C)c1cc(-c2ccc(F)cc2)nn2cc(C(=O)N3CCN(C4(CO)CC4)C(=O)C3(C)C)nc12 [Compound I-297] | 0.0127 | 0.0091 | 0.3 | > 1 |  |
| Cc1cc(C(=O)N2CCN(C(=O)c3cn4nc(-c5ccc(Cl)c(F)c5)cc(C(C)(C)C)c4n3)C(C)(C)C2)[nH]n1 [Compound I-450] | 0.0003 | 0.0001 | > 1 | > 1 |  |
| CC(C)(C)c1cc(-c2ccc(F)cc2)nn2cc(C(=O)N3CCN(C(=O)[C@H]4C[C@@H](C(=O)O)C4)CC3(C)C)nc12 [Compound I-555, (1S,3S)-3-(4-(8-(tert-butyl)-6-(4-fluorophenyl)imidazo[1,2-b]pyridazine-2-carbonyl)-3,3-dimethylpiperazine-1-carbonyl)cyclobutane-1-carboxylic acid] |  |  |  |  | IC50 ([1]; antagonist mode, 3.1 U/mL trypsin): 0.0078 µM; IC50 ([2]; antagonist mode, 8 μM SLIGKV): 0.0042 µM; IC50 ([3]; antagonist mode, 1 U/mL Thrombin): > 1 µM; IC50 ([4]; antagonist mode, 0.6 μM UTP): > 1 µM |
| O=C1CCN(C(=O)c2cn3nc(-c4ccc(F)cc4)cc(C(F)(F)F)c3n2)CC1 [Compound I-66] |  |  |  |  | IC50 [1, 9]: 12 µM; IC50 ([2]; stimulation with 8 μM SLIGKV): 5 µM; IC50 [3, 10]: 48 µM; IC50 ([4]; stimulation with 0.6 μM UTP): > 50 µM |
| Cc1ccc(-c2cc(C(C)(C)C)c3nc(C(=O)N4CCNC(=O)C4(C)C)cn3n2)cc1F [Compound I-298] | 0.0018 | 0.0023 | > 1 | > 1 |  |
| Cc1nc(C(=O)N2CCN(C(=O)c3cn4nc(-c5ccc(Cl)c(F)c5)cc(C(C)(C)C)c4n3)C(C)(C)C2)n[nH]1 [Compound I-451] | 0.0003 | 0.0001 | > 1 | 0.71 |  |
| CCC(=O)N1CCN(C(=O)c2cn3nc(-c4ccc(F)cc4)cc(C(F)(F)F)c3n2)CC1 [Compound I-59] |  |  |  |  | IC50 [1, 9]: 2 µM; IC50 ([2]; stimulation with 8 μM SLIGKV): 22 µM; IC50 [3, 10]: > 50 µM; IC50 ([4]; stimulation with 0.6 μM UTP): > 50 µM |
| CC(C)(O)CC(=O)N1CCN(C(=O)c2cn3nc(-c4ccc(F)cc4)cc(C(C)(C)C)c3n2)C(C)(C)C1 [Compound I-289] | 0.0025 | 0.0015 | 0.43 | 0.54 |  |
| CC(C)(C)c1cc(-c2ccc(Br)cc2)nn2cc(C(=O)N3CCNC(=O)C3(C)C)nc12 [Compound I-517] | 0.0021 | 0.0027 | > 1 | > 1 |  |
| C[C@@H]1CN(c2cc(-c3ccc(F)cc3)nn3cc(C(=O)N4CCNC(=O)C4(C)C)nc23)C[C@H](C)O1 [Compound I-182] | 0.0403 | 0.0173 | 1.14 | 1.27 |  |
| CC(C)c1cc(-c2ccc(F)cc2)nn2cc(C(=O)N3CCN(C(=O)CC(C)(C)O)CC3(C)C)nc12 [Compound I-305] | 0.045 | 0.033 | > 1 | > 1 |  |
| COC(=O)C1(C)CCC(C(=O)N2CCN(C(=O)c3cn4nc(-c5ccc(Cl)cc5)cc(C(C)(C)C)c4n3)C(C)(C)C2)CC1 (centres unmarked) [Compound I-532] | 0.0011 | 0.0008 | > 1 | > 1 |  |
| CC(C)(C)c1cc(-c2ccc(C(F)F)cc2)nn2cc(C(=O)N3CCNC(=O)C3(C)C)nc12 [Compound I-349] | 0.0026 | 0.003 | > 1 | > 1 |  |
